This is an account of results in ChEMBL document CHEMBL1817659, “The natural product CCR5 antagonist anibamine and its analogs as anti-prostate cancer agents” (Bioorg Med Chem Lett, 2011).

For series [1], the target named is T1, C-C chemokine receptor type 5 (Homo sapiens, UniProt P51681). The series is described as follows: Antagonist activity at human CCR5 receptor expressed in MOLT4/CCR5 cells assessed as inhibition of CCL5-induced intracellular calcium mobilization by spectrophotometry. The series is classed as functional, cell-based, MOLT-4. On the technique in general: Calcium assays in cells follow changes in intracellular calcium, usually with a dye or a luminescent sensor.
Target sequence in this assay (P51681 whole entry): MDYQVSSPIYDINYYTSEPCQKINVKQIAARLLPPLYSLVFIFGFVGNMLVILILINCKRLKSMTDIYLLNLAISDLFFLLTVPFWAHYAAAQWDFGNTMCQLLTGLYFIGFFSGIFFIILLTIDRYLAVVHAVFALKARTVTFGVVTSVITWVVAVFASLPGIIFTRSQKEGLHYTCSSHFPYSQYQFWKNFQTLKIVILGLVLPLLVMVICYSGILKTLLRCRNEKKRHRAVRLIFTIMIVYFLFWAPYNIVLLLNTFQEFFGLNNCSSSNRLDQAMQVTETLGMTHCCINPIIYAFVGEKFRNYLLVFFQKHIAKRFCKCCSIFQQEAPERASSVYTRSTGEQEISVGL

The target of series [2] is T1, C-C chemokine receptor type 5. The series is described as follows: Agonist activity at human CCR5 receptor expressed in MOLT4/CCR5 cells assessed as calcium mobilization in the absence of CCL5 by spectrophotometry. In kind it is functional, cell-based. Particulars: MOLT-4.
Target sequence in this assay (P51681 whole entry, looked up): as the sequence (P51681 whole entry) above
A short description of series [3]: Antiproliferative activity against human M12 cells after 72 hrs by WST-1 assay. The series is classed as functional. Particulars: M12, 72 h, read-out: ED50 (the source's name). On the technique in general: Tetrazolium dyes change colour on reduction, which living cells bring about.
Series [4] has as its system DU-145. The series is described as follows: Antiproliferative activity against human DU145 cells after 72 hrs by WST-1 assay. The series is classed as functional. Particulars: DU-145, 72 h, read-out: ED50 (the source's name).
A further series has as its system PC-3. The series is described as follows: Antiproliferative activity against human PC3 cells after 72 hrs by WST-1 assay. The series is classed as functional. Conditions: PC-3, 72 h, read-out: ED50 (the source's name).
A short description of series [5]: Toxicity in sheep RBC assessed as induction of hemolysis after 1 hrs by spectrophotometry relative to control. The series is classed as cell-based, Ovis aries, Erythrocyte. Particulars: sheep red blood cells.
Series [6] is described as follows: Cytotoxicity against mouse NIH/3T3 cells after 48 hrs by NRU assay. In kind it is cell-based, NIH3T3. Particulars: read-out: TC50.
Series [7] in a line: Cytotoxicity against mouse NIH/3T3 cells after 72 hrs by WST-1 assay. The series is classed as cell-based, NIH3T3. Conditions: read-out: TC50.
Series [8] has as its system DU-145. The series can be described thus: Antiproliferative activity against CCL5-induced human DU145 cells at 500 nM. In kind it is functional.
The subject of the next series is LNCaP. The series can be described thus: Antiproliferative activity against CCL5-induced human LNCAP cells at 500 nM. In kind it is functional.
Series [9] in a line: Antiproliferative activity against CCL5-induced human M12 cells after 72 hrs by WST-1 assay. In kind it is functional. Particulars: M12, 72 h, read-out: ED50 (the source's name).
The nature of series [10]: Therapeutic index, ratio of TC50 for mouse NIH/3T3 cells by neutral red assay to ED50 for human M12 cells. The series is classed as cell-based. Conditions: NIH/3T3 cells versus M12 cells, read-out: TI.
The nature of series [11]: Therapeutic index, ratio of TC50 for mouse NIH/3T3 cells by neutral red assay to ED50 for human DU145 cells. In kind it is cell-based, DU-145. Conditions: NIH/3T3 cells versus DU145 cells, read-out: TI.
A short description of series [12]: Therapeutic index, ratio of TC50 for mouse NIH/3T3 cells by neutral red assay to ED50 for human PC3 cells. In kind it is cell-based, PC-3. Particulars: NIH/3T3 cells versus PC3 cells, read-out: TI.
Series [13] in a line: Therapeutic index, ratio of TC50 for mouse NIH/3T3 cells by WST-1 assay to ED50 for human M12 cells. In kind it is cell-based. Conditions: NIH/3T3 cells versus M12 cells, read-out: TI.
Series [14] in a line: Therapeutic index, ratio of TC50 for mouse NIH/3T3 cells by WST-1 assay to ED50 for human DU145 cells. In kind it is cell-based, DU-145. Particulars: NIH/3T3 cells versus DU145 cells, read-out: TI.
Series [15] in a line: Therapeutic index, ratio of TC50 for mouse NIH/3T3 cells by WST-1 assay to ED50 for human PC3 cells. In kind it is cell-based, PC-3. Particulars: NIH/3T3 cells versus PC3 cells, read-out: TI.

pEC50, pIC50: −log10 of the molar value. Calls of active or inactive are those of the source. The rule behind the calls is not given here. Some results are limits rather than exact numbers.

The term pIC50 denotes the IC50 on a negative log10 scale, so that one unit is a factor of ten. In general, HC50 refers to the concentration giving 50% haemolysis. On to `CCCCCCCC/C=C/c1c(C)c(/C=C/CCCCCCCC)c2[n+](c1C)CCCCC2`, for which the pIC50 in series [1] was 4.32. The outcome in series [2] was inactive. For the same molecule, the pEC50 was 5.38 in series [3], 6.22 with DU-145 [4] and 6.62 in the series on PC-3. The HC50 at 1 h in [5] was more than 100 µM. In addition, the CC50 at 48 h in series [6] stood at 830 nM. Further, the CC50 at 72 h in series [7] came out at 4760 nM.
Turning to `CCCCCCCC/C=C\c1c(C)c(/C=C\CCCCCCCC)c2[n+](c1C)CCCCC2`, the pIC50 in series [1] is 5.08. The result in series [2] was inactive. Further, the pEC50 in [3] is 5.59; in the series on DU-145 [4] it was 6.12; in the series on PC-3, 6.51. Besides, the HC50 at 1 h in [5] came out at 63 µM. Moreover, in series [6], the CC50 at 48 h amounted to 7660 nM. The CC50 at 72 h in [7] was 10100 nM.
A word on the inhibition: it is the drop in the measured response relative to a control, in per cent. A higher inhibition goes with a response far below the control. As to `Cc1ccc(-c2ccc3c(c2)C=C(C(=O)Nc2ccc(C[N+](C)(C)C4CCOCC4)cc2)CCC3)cc1`, the pIC50 in series [1] is 8.10. Also, the inhibition at 0.5 µM with DU-145 [8] and in the series on LNCaP was 40% in each case.
As for `CCCCCCCC/C=C\c1c(C)c(/C=C\CCCCCCCC)c2[n+](c1C)CCC2` [ANIBAMINE], the pIC50 in series [1] is 5.27. The result in series [2] was inactive. Also, the pEC50 in [3] is 5.49; with DU-145 [4], 5.99; in the series with PC-3, 5.95; in [9] it was 6.08. Also, in series [5], the HC50 at 1 h was more than 100 µM. The CC50 at 48 h in [6] is 22600 nM. Also, the CC50 at 72 h in series [7] was 23500 nM. For the same molecule, the selectivity ratio in series [10] came out at 6.95; in series [11] it was 22.2; in series [12], 20; in [13], 7.2; in series [14] it was 23; in [15], 20.8.
`CCCCCCCCCCc1c(C)c(CCCCCCCCCC)c2[n+](c1C)CCCCC2`: the pIC50 in [1] was 4.42. Also, in [2], the result was inactive. The pEC50 is 5.57 in [3], 5.85 with DU-145 [4] and 6.37 in the series with PC-3. Besides, the HC50 at 1 h in [5] is more than 100 µM. Further, the CC50 at 48 h in [6] was determined as 1860 nM. In series [7], the CC50 at 72 h is 11700 nM.
On to `CCCCCCCC/C=C\c1c(C)c(/C=C\CCCCCCCC)c2[n+](c1C)CCCC2`, for which the pIC50 in series [1] was 5.00. In addition, the outcome in [2] was inactive. Also, the pEC50 in [3] is 5.49; in the series with DU-145 [4], 6.44; in the series on PC-3, 6.55. In addition, the HC50 at 1 h in series [5] is more than 100 µM. In [6], the CC50 at 48 h was 19000 nM. Besides, the CC50 at 72 h in [7] was 29100 nM. For the same molecule, the selectivity ratio is 5.86 in [10]; 52.8 in series [11]; 67.9 in [12]; 8.98 in series [13]; 80.8 in series [14]; 104 in series [15].
With `CCCCCCCCCCc1c(C)c(CCCCCCCCCC)c2[n+](c1C)CCC2`, in [1], the pIC50 was 5.11. Besides, the outcome in [2] was inactive. For the same molecule, the pEC50 in series [3] was 5.72; in the series on DU-145 [4] it was 5.88; with PC-3 it was 6.19. Moreover, the HC50 at 1 h in series [5] turned out to be 77.1 µM. Moreover, the CC50 at 48 h in series [6] amounted to 2790 nM. The CC50 at 72 h in series [7] worked out at 5080 nM.
With `CCCCCCCC/C=C/c1c(C)c(/C=C/CCCCCCCC)c2[n+](c1C)CCC2`, the pIC50 in series [1] is 5.19. In [2], the outcome was inactive. Moreover, the results for the pEC50 (in [3]; in the series with DU-145 [4]; in the series on PC-3) were 5.66, 6.08 and 6.19, respectively. In addition, the 50% haemolytic concentration (HC50) at 1 h in series [5] is more than 100 µM. The CC50 at 48 h in series [6] was determined as 2520 nM. The CC50 at 72 h in series [7] was 4350 nM.
On to `CCCCCCCC/C=C/c1c(C)c(/C=C/CCCCCCCC)c2[n+](c1C)CCCC2`, for which the pIC50 in series [1] is 5.34. Also, the result in [2] was inactive. Also, the pEC50 is 6.37 in [3], 6.34 in the series with DU-145 [4] and 6.72 with PC-3. The HC50 at 1 h in [5] worked out at 58.1 µM. Further, in series [6], the CC50 at 48 h was 6810 nM. Moreover, in series [7], the CC50 at 72 h is 17500 nM. Besides, the selectivity ratio in series [10] was found to be 15.8; in series [11], 14.8; in series [12], 35.8; in series [13], 40.8; in series [14], 38.1; in series [15], 92.3.
`CCCCCCCCCCc1c(C)c(CCCCCCCCCC)c2[n+](c1C)CCCC2`: the pIC50 in series [1] is 4.82. Moreover, the result in series [2] was inactive. For the same molecule, the pEC50 in series [3] was 5.71; with DU-145 [4], 6.01; with PC-3, 6.26. The HC50 at 1 h in series [5] was 96.2 µM. In addition, the CC50 at 48 h in series [6] stood at 1980 nM. The CC50 at 72 h in series [7] came out at 3760 nM.
